{"source": "patent US7745401B2", "about": "“Antifungal peptides and methods of use thereof” (The Board of Regents of the University of Oklahoma, priority 2005, dated 2010)", "key": {"[1]": {"test_system": "E. coli lipopolysaccharide (LPS)", "conditions": "conscious rat; cited from earlier work"}, "C. glabrata": {"test_system": "C. glabrata", "assay": "In vitro candidacidal assay, C. glabrata", "assay_type": "cell-based", "conditions": "one isolate of three; 400 μg/ml (150 μM)", "experimental": "(§1) Isolates used in this study included Candida albicans (ATCC 28367), three fluconazole sensitive mucosal isolates of C. albicans, designated A-22, A-111 and A-155, three fluconazole resistant mucosal isolates of C. albicans designated A-46, A-5, and A-20, and a blood isolate of C. albicans designated WDO. Isolates were stored frozen at −70° C. and streaked onto Sabouraud Dextrose Agar (Sigma, St. Louis, Mo.) plates and maintained on plates at 4° C., with subculturing onto new plates approximately every 10 days for the duration of the studies. Fluconazole resistance was evaluated. Three clinical isolates of C. glabrata, two clinical isolates of C. dubliniensis, and single isolate each of C. krusei, C. guilliermondii, C. parapsilosis, C. pseudotropicalis and C. tropicalis and two isolates of Saccharomyces cerevisiae were also used in this study and were maintained on Sabouraud Dextrose agar plates at 4° C. A single yeast colony was cultured overnight at 33° C. in 1% phytone peptone broth (Becton Dickinson, Sparks Md.) with 0.1% D-glucose (Sigma).\n(§2) Stock solutions of all peptides were made up at concentrations of 1 mg/ml in sterile endotoxin-free water for irrigation (Baxter, Deerfield, Ill.). Subsequent dilutions were all made in tryptone saline pH 5.5 (Shafer et al., Infect Immun, 1984). […] The optical density was read and the culture adjusted to 500 blastospores/100 μl in tryptone saline pH 5.5 (Shafer et al., Infect Immun, 1984). […] The colony forming units (cfu) were counted and the fungicidal activity was expressed as percent killed and calculated according to the following equation: [(control cfu−test cfu)/control cfu]×100=% killed. […] Test cfu is determined by counting the number of colonies present after incubation in tryptone saline containing the peptide. […]"}, "[2]": {"test_system": "Salmonella typhimurium, Escherichia coli, and Pseudomonas aeruginosa", "conditions": "Gram negative organisms; cited from earlier work"}, "C. dubliniensis": {"test_system": "C. dubliniensis", "assay": "In vitro candidacidal assay, C. dubliniensis", "assay_type": "cell-based", "conditions": "two isolates; 400 μg/ml (150 μM)", "experimental": "as §1, §2"}, "C. tropicalis": {"test_system": "C. tropicalis", "assay": "In vitro candidacidal assay, C. tropicalis", "assay_type": "cell-based", "conditions": "400 μg/ml (150 μM)", "experimental": "as §1, §2"}, "Candida albicans": {"test_system": "Candida albicans", "assay_type": "cell-based", "experimental": "as §1\nStock solutions of all peptides were made up at concentrations of 1 mg/ml in sterile endotoxin-free water for irrigation (Baxter, Deerfield, Ill.). Subsequent dilutions were all made in tryptone saline pH 5.5 (Shafer et al., Infect Immun, 1984). An aliquot (100 μl) of an overnight culture of a single colony grown at 33° C. in 1% phytone peptone broth with 0.1% glucose was subcultured in 5 ml of 1% phytone peptone broth with 0.1% glucose and incubated in a shaking water bath (80 oscillations per min, Precision, Winchester, Va.) for 90 min at 33° C. to yield a logarithmic culture. […] The optical density was read and the culture adjusted to 500 blastospores/100 μl in tryptone saline pH 5.5 (Shafer et al., Infect Immun, 1984). To 100 μl of the organism suspension in a 96 well sterile polystyrene microtiter plate (Becton Dickinson, Franklin Lakes, N.J.) was added 100 μl of the peptide (final concentrations 400 μg/ml and 200 μg/ml) or 100 μl of tryptone saline. The latter served as a control. The microtiter plate was incubated at 37° C. for 4 hr and 100 μl of the contents from each well was plated on Sabouraud Dextrose agar plates and incubated at 37° C. overnight. The colony forming units (cfu) were counted and the fungicidal activity was expressed as percent killed and calculated according to the following equation: [(control cfu−test cfu)/control cfu]×100=% killed. Control cfu is indicated by the number of colonies present after […] of incubation in tryptone saline alone in the absence of peptide. Test cfu is determined by counting the number of colonies present after incubation in tryptone saline containing the peptide. Each experimental point was performed in triplicate.\nC. albicans (ATCC 28367) was used to standardize the in vitro killing assay. We explored the optimal growth conditions (temperature and time, 25° C. for 5 h and 33° C. for 90 min), numbers of blastospores per well (200, 400, 500, 600, 800, and 1000 cfu), range of peptide concentrations (750, 500, 400, 200 and 100 μg/ml) and the contact time between peptide and Candida (1, 2 and 4 hr) for killing to occur. […] The 90 minute incubation was more convenient technically and was therefore employed routinely. The optimum numbers of cfu per well was determined to be 500 and an incubation time of 4 hr at 37° C. between Candida and peptide was required to obtain optimal killing."}, "[3]": {"test_system": "C. albicans (fluconazole sensitive isolate)", "assay": "FUN-1 vital dye yeast viability, confocal microscopy, C. albicans", "assay_type": "cell-based, Candida albicans", "conditions": "400 μg/ml, 37° C. for 2 hr", "experimental": "Yeast viability was also assessed using the FUN-1 Live/Dead Yeast Viability Kit (Molecular Probes, Eugene, Oreg.). The methodology employed was essentially according to the protocol provided by the vendor for use with fluorescent microscopy. Briefly, yeast cultures were prepared exactly as stated above. C. glabrata, C. pseudotropicalis, C. albicans (fluconazole sensitive isolate) and S. cerevisiae (5×10^5 cfu in 100 μl of tryptone saline) were incubated (37° C. for 2 hr) in the absence or presence of peptide (CAP37(20-44)nat and CAP37(20-44)ser26/42) at a final concentration of 400 μg/ml. At the end of the incubation period, the samples were transferred to microcentrifuge tubes and centrifuged (10,000×g for 3 min at room temperature). The supernatant was removed and the pellet resuspended in 25 μl of GH solution (2% D-glucose containing 10 mM Na-HEPES, pH 7.2) as described in the technical data sheet provided by the vendor. A working solution of the FUN-1 reagent (100 μl of 10 μM) was prepared from 10 mM stock solution and 25 μl (final concentration 5 μM) added to the yeast and incubated at room temperature for 30 min. A sample (10 μl) was placed on a microscope slide and staining observed under a Leica TCS NT confocal microscope using Ar-488 and Kr-568 Lasers and 63x Plan APO 1.2 NA water immersion objective. Images were scanned and analyzed using the Leica TCS software."}}, "note": "“Also recorded” adds a separate entry of the source. Where a SMILES comes first, the peptide text is derived from it."}
{"compound": "CC[C@H](C)[C@H](NC(=O)[C@H](CC(C)C)NC(=O)[C@H](C)NC(=O)CNC(=O)CNC(=O)[C@H](CS)NC(=O)[C@H](Cc1ccccc1)NC(=O)[C@H](Cc1c[nH]cn1)NC(=O)[C@H](CCCNC(=N)N)NC(=O)CNC(=O)[C@H](CCC(N)=O)NC(=O)[C@@H](N)CC(N)=O)C(=O)N[C@@H](Cc1c[nH]cn1)C(=O)N[C@@H](C)C(=O)N[C@@H](CCCNC(=N)N)C(=O)N[C@@H](Cc1ccccc1)C(=O)N[C@H](C(=O)N[C@@H](CCSC)C(=O)N[C@H](C(=O)N[C@@H](C)C(=O)N[C@@H](C)C(=O)N[C@@H](CO)C(=O)N[C@@H](CS)C(=O)N[C@@H](Cc1ccccc1)C(=O)N[C@@H](CCC(N)=O)C(=O)O)[C@@H](C)O)C(C)C", "note": "[CAP37(20-44)nat, NQGRHFCGGALIHARFVMTAASCFQ] (H-NQGRHFCGGALIHARFVMTAASCFQ-OH; N-terminus and C-terminus assumed)", "values": [{"measurement": "efficacy against lethal effects of LPS", "setting": "[1]", "value": "attenuating the lethal effects"}, {"measurement": "activity against C. glabrata", "setting": "C. glabrata", "value": "effective against both isolates of C. dubliniensis and one isolate of C. glabrata, although to a lesser extent"}, {"measurement": "bactericidal activity", "setting": "[2]", "value": "potent bactericidal activity; also recorded: mimicked the antimicrobial activity of the native molecule"}, {"measurement": "activity against C. dubliniensis", "setting": "C. dubliniensis", "value": "effective against both isolates of C. dubliniensis and one isolate of C. glabrata, although to a lesser extent"}, {"measurement": "activity against C. tropicalis", "setting": "C. tropicalis", "value": "killed"}, {"measurement": "killing", "setting": "Candida albicans", "value": "> 75", "unit": "%"}, {"measurement": "killing with varying peptide concentrations", "setting": "Candida albicans; C. albicans ATCC 28367, 750, 500, 400, 200 and 100 μg/ml", "value": "Dose dependent killing"}, {"measurement": "killing of blood isolate of Candida", "setting": "Candida albicans; blood isolate of C. albicans, 400 μg/ml (150 μM)", "value": "killed"}, {"measurement": "peptide concentration required for activity", "setting": "Candida albicans; fluconazole resistant isolate A-46", "value": 400, "unit": "µg/mL"}, {"measurement": "activity at the lower concentration", "setting": "Candida albicans; fluconazole resistant isolates A-5 and A-20, 200 μg/ml or 75 μM", "value": "significant activity"}, {"measurement": "activity against C. albicans", "setting": "Candida albicans; in vitro killing efficacy", "value": "significant activity"}, {"measurement": "fungicidal or fungistatic effect", "setting": "Candida albicans; isolates A-5, A-20, A-46 and A-155, viable colony counts versus starting inoculum", "value": "fungicidal rather than fungistatic"}, {"measurement": "activity against fluconazole resistant isolates", "setting": "Candida albicans; isolates A-5 and A-20", "value": "highly active"}, {"measurement": "activity against fluconazole sensitive isolates", "setting": "Candida albicans; isolates A-155, A-22 and A-111, 400 μg/ml", "value": "strongly active"}, {"measurement": "blastoconidia stained green or green-yellow (dead)", "setting": "[3]", "value": "70-80%"}]}
